From patent US10934263B2, “Charged ion channel blockers and methods for use” (Nocion Therapeutics, Inc., priority 2019, dated 2021)

Assays:
NaV1.7 [1] = target: T1, NaV1.7 (Homo sapiens, UniProt Q15858); assay: Automated patch clamp (Qube 384), internal block of NaV1.7 in HEK293 cells; type: cell-based; conditions: compound in internal solution, read-out: Nav1.7 Intracellular Inhibition (IC50)
T1 construct: expressed in transfected cells; tetracycline-inducible, kept under hygromycin and blasticidin
Procedure: (§1) NaV1.7 was expressed in HEK293 cells upon induction with tetracycline. Cells were cultured in DMEM containing 10% dialyzed Fetal Bovine Serum (VWR, Radnor, Pa.), 1% Glutamax (VWR, Radnor, Pa.), 1% Penicillin-Streptomycin (VWR, Radnor, Pa.), 100 mg/L Hygromycin (Thermo Fisher Scientific, Waltham, Mass. and 5 mg/L Blasticidin (Alfa Aesar, Haverhill, Mass.). Cells were grown and maintained at 37° C. in a humidified environment containing 10% CO2 in air. Cells were detached from the culture flask for passage and harvested using 0.05% Trypsin-EDTA (Thermo Fisher Scientific, Waltham, Mass.). To induce NaV1.7, cells were induced with tetracycline (0.1-1 μg/mL, IBI Scientific, Peosta, Iowa) the day before recording.
(§2) Before experiments, cells were washed with DPBS (VWR, Radnor, Pa.), digested with Detachin (VWR Radnor, Pa.) and then triturated 10 times in CHO Serum-Free Media (VWR Radnor, Pa.) to resuspend the cells and to break apart cell aggregates. Cells were counted and the final concentration was set at 2-5 million cells per mL.
(§3) The intracellular solution contained the following: 140 mM CsF, 1 mM/5 mM EGTA/CsOH, 10 mM HEPES, 10 mM NaCl, adjusted to pH 7.3 with CsOH, and osmolality to 320 with sucrose. The external solution contained the following: 145 mM NaCl, 4 mM KCl, 1 mM MgCl2, 2 mM CaCl2, 10 mM HEPES, 10 mM Glucose, adjusted to pH 7.4 with CsOH and osmolality to 305 with sucrose. All chemicals are from Sigma-Aldrich, St. Louis, Mo. In order to test the degree of internal block by test compounds, the compounds were dissolved in internal solution at the indicated test concentration. […] In order to test the degree of external block by test compounds the compounds were dissolved in external solution at the indicated test concentration.
(§4) Automated Patch Clamps were performed on Qube 384 (Sophion Bioscience, Woburn Mass.) with multihole Qchips at a temperature setting of 22 degrees. The whole cells configuration was formed with default Qube seal and break-in parameter. The membrane potential was held at −100 mV before the voltage protocol began. Two voltage protocols were followed.
(§5) Step 1: Cells were held at −100 mV with a depolarized pulse to −20 mV for 10 ms, the interval was set at 5 s. Currents were corrected by default leak subtraction from every pulse. The duration was set at 5 mins.
(§6) Step 2: Cells were held at −100 mV with a depolarized pulse to −20 mV for 10 ms. The frequency was 5 Hz. Currents were corrected by leak subtraction calculated before step 2. The duration was set at 4 mins.
After Step 2, the Qchip was removed from the recording chamber. The internal solution was changed with solutions containing test compounds. Qchips were held at −100 mV without pulsing after being replaced in the recording chamber. The total solution switching time was 8 minutes. After the internal solution exchange, Cells were recorded and step 2 for repeated for 10 minutes.
Data analysis was performed by Sophion Analyzer. Cells were filtered with minimum 50 MOhm seal resistance and minimum 5 nA starting current. The rundown of the currents was corrected with control cells (Non-Drug). The remaining was calculated by averaging last 3 points in the end of experiments. The base line was calculated as the average of last 3 points of Step 2. IC50 curves were plotted with DR-plots/Hill function (a dose-response plot with a Hill fit). Data analysis was performed by Sophion Analyzer.

NaV1.7 [2] = target: T1, NaV1.7; assay: Automated patch clamp (Qube 384), external block of NaV1.7 in HEK293 cells; type: cell-based; conditions: compound in external solution, read-out: Nav1.7 Extracellular Inhibition (IC50)
Procedure: as §1, §2, §3, §4, §5, §6
After Step 2, the external solution was changed with solutions containing test compounds. Qchips were held at −100 mV without pulsing. The total solution switching time was 8 minutes. After the external solution exchange, cells were recorded using the same procedure as step 2 for 10 minutes.
Data analysis was performed by Sophion Analyzer. Data were corrected with control cells (Non-Drug). The IC50 data were plotted with DR-plots/Hill function (a dose-response plot with a Hill fit).

T1 sequence (Q15858 whole entry): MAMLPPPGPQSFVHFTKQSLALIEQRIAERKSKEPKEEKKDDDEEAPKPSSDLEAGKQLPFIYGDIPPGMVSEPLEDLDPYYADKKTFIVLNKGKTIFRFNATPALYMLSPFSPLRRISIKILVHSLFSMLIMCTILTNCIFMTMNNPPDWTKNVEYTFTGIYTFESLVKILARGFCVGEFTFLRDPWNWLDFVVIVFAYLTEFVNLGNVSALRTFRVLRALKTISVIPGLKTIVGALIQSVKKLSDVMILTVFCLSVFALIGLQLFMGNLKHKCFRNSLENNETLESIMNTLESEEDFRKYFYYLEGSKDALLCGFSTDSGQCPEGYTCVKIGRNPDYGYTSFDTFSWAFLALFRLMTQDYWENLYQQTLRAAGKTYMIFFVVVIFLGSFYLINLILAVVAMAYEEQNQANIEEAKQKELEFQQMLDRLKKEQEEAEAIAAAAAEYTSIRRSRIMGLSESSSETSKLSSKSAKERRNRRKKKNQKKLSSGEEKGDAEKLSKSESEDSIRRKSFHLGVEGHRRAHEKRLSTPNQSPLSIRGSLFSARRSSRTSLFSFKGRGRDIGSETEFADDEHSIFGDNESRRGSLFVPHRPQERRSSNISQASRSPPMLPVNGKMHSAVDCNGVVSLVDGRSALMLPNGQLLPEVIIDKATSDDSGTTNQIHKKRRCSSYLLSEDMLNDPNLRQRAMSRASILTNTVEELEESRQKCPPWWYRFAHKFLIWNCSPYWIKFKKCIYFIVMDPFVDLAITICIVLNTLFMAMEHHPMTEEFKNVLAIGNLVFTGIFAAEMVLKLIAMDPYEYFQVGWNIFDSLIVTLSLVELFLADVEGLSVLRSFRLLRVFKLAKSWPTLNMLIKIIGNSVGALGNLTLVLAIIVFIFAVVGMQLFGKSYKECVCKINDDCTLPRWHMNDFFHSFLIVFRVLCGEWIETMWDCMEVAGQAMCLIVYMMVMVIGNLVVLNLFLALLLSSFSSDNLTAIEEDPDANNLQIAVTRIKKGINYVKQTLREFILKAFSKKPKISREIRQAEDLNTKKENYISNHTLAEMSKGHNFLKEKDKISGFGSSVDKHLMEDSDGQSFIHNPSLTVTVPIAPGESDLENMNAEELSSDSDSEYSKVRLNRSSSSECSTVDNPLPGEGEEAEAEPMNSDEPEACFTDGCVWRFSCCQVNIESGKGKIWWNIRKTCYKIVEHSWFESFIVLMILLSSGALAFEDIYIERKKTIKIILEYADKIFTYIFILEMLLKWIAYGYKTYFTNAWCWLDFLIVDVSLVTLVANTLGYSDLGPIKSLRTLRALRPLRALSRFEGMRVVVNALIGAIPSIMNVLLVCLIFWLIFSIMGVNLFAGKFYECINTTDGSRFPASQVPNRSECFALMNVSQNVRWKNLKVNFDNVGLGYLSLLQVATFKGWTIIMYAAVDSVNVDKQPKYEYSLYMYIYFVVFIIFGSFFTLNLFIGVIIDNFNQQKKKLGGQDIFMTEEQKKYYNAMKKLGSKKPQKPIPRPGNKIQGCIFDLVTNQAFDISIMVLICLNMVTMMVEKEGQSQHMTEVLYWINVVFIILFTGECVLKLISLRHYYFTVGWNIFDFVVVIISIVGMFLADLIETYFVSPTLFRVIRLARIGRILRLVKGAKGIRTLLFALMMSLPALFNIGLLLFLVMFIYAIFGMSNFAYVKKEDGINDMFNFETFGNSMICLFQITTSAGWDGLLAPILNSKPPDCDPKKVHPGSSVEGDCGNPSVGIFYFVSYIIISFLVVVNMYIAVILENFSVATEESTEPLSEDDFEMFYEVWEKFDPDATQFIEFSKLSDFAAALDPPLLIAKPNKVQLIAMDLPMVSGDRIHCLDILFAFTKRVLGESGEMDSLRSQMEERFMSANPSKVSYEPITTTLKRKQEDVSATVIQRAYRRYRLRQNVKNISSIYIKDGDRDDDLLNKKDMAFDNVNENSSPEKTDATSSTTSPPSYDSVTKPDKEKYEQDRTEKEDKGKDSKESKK

Row | IC50 (NaV1.7 [1]) | IC50 (NaV1.7 [2]) | Compound
1 | 1 to 3 µM | > 100 µM | Cc1cccc(C)c1NC(=O)C[n+]1cccn1CC(C)C [Compound 27]
2 | 1 to 3 µM | > 100 µM | Cc1cccc(C)c1NC(=O)C[n+]1ccccc1-c1ccccc1 [Compound 16]
3 | 3 to 10 µM | 30 to 100 µM | Cc1cccc(C)c1NC(=O)C[n+]1cccc(C2CC2)c1 [Compound 22]
4 | 3 to 10 µM | > 100 µM | Cc1cccc(C)c1NC(=O)C[n+]1cc(-c2ccccc2)n(C)c1 [Compound 24]
5 | < 1 µM | 30 to 100 µM | Cc1cccc(C)c1NC(=O)C[n+]1cccn1C1CCCCC1 [Compound 28]
6 | 1 to 3 µM | > 100 µM | Cc1cccc(C)c1NC(=O)C[n+]1c(C)cccc1C [Compound 6]
7 | 1 to 3 µM | < 10 µM | Cc1cccc(C)c1NC(=O)C[n+]1cc(-c2ccccc2)c2ccccc2c1 [Compound 100]
8 | 1 to 3 µM | 10 to 30 µM | Cc1cccc(C)c1NC(=O)C[n+]1cccc(-c2ccccc2)c1 [Compound 12]
9 | 1 to 3 µM | > 100 µM | CCNC(=O)Cn1ccc[n+]1CC(=O)Nc1c(C)cccc1C [Compound 30]
10 | 3 to 10 µM | > 100 µM | Cc1cccc(C)c1NC(=O)C[n+]1cccn1-c1ccccc1 [Compound 29]
11 | < 1 µM | < 10 µM | Cc1cccc(C)c1NC(=O)C[n+]1c(C)ccc(-c2ccccc2)c1C [Compound 23]
12 | < 1 µM | < 10 µM | Cc1cccc(C)c1NC(=O)C[n+]1cccc(C2CCCC2)c1 [Compound 21]
